For experiment [1], the target named is GDP-bound NRAS wild-type protein (Homo sapiens, UniProt P01111). In words: Binding to NRAS by surface plasmon resonance (SPR), Single Cycle Kinetics. The conditions noted are these: SPR, GDP-bound NRAS wild-type protein vs GDP-bound KRAS wild-type protein.
Experiment [2] addresses GDP-bound KRAS wild-type protein (Homo sapiens, UniProt P01116). Nature of the experiment: Binding to KRAS by surface plasmon resonance (SPR), Single Cycle Kinetics. The note with it: GDP-bound KRAS wild-type protein, read-out: KRAS KD.
Experiment [3] addresses GDP-bound HRAS wild-type protein (Homo sapiens, UniProt P01112). Nature of the experiment: Binding to HRAS by surface plasmon resonance (SPR), Single Cycle Kinetics. The note with it: SPR, GDP-bound HRAS wild-type protein vs GDP-bound KRAS wild-type protein. In general terms: SPR reads the build-up and loss of mass on a sensor chip optically.
[4] abbreviates: SPR Single Cycle Kinetics, 1:1 binding model.

Like-named read-outs stand apart in the source and are kept apart here. Where a SMILES comes first, the peptide text is derived from it. Bridges are numbered along the chain shown (N, C = ends). [ ]: non-standard residue; d: D form. The star is where a group is joined. hPhe(3-Cl-4-CF3) = N[C@@H](CCc1ccc(C(F)(F)F)c(Cl)c1)C(=O)O; NPrPhe(4-CF3) = CCCN[C@@H](Cc1ccc(C(F)(F)F)cc1)C(=O)O; NMeGly(cPent) = CN[C@H](C(=O)O)C1CCCC1; Pro(4,4-F2) = O=C(O)[C@@H]1CC(F)(F)CN1; NMeL = CN[C@@H](CC(C)C)C(=O)O; Morpholide = C1CN(*)CCO1; Ac5c = NC1(C(=O)O)CCCC1; Ac4c = NC1(C(=O)O)CCC1; Sar = CNCC(=O)O

Chain of GDP-bound HRAS wild-type protein (P01112 whole entry): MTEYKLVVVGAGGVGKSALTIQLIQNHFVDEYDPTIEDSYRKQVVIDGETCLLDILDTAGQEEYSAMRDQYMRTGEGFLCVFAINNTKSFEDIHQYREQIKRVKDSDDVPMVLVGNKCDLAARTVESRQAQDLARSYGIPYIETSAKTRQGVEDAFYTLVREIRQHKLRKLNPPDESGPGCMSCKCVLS
Chain of GDP-bound NRAS wild-type protein (P01111 whole entry): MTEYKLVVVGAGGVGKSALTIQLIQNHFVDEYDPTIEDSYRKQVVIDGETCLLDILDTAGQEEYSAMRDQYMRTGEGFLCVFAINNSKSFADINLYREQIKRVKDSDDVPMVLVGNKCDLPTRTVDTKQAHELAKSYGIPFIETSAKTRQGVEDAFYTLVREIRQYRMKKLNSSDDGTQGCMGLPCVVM
Chain of GDP-bound KRAS wild-type protein (P01116 whole entry): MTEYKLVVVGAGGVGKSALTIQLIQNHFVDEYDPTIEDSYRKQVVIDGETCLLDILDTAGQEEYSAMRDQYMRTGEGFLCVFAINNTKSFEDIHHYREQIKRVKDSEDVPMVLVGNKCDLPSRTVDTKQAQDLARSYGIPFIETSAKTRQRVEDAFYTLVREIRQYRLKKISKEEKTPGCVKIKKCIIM

Take `CCCN(C)C(=O)[C@@H]1CC(=O)N(C)[C@@H](CC2CC2)C(=O)N[C@@H]([C@@H](C)CC)C(=O)N(C)CC(=O)N(C)[C@H]2C/C=C\CCN(C2=O)[C@@H](Cc2ccc(C(F)(F)F)cc2)C(=O)N(C)CC(=O)N[C@@H](CCc2cc(F)c(C(F)(F)F)c(F)c2)C(=O)N2C[C@H](OCC)C[C@H]2C(=O)NC2(CCC2)C(=O)N(C)[C@@H](C2CCCC2)C(=O)N1C` [PP1388]: in experiment [1] (KD ratio class), the “NRAS/KRAS (ratio of KD value for NRAS to KD value for KRAS)” value was “A (a compound having 10 or more and less than 20 is denoted as A)”. Besides, the Kd in experiment [2] (SPR, Single Cycle Kinetics, 1:1 binding model) is 76 pM. Further, the “HRAS/KRAS (ratio of KD value for HRAS to KD value for KRAS)” value in experiment [3] (KD ratio class) is “B (a compound having 3 or more and less than 10 is denoted as B)”.

Regarding `CC[C@H](C)[C@@H]1NC(=O)[C@H](C)N(C)C(=O)C[C@@H](C(=O)N(C)C)N(C)C(=O)[C@H](C2CCCC2)N(C)C(=O)C2(CCCC2)NC(=O)[C@@H]2CC(F)(F)CN2C(=O)[C@H](CCc2cc(F)c(C(F)(F)F)c(F)c2)NC(=O)CN(C)C(=O)[C@H](Cc2ccc(C(F)(F)F)cc2)N2CCCC[C@@H](C2=O)N(C)C(=O)CN(C)C1=O` [PP0583], the “NRAS/KRAS (ratio of KD value with respect to NRAS to KD value with respect to KRAS)” value in experiment [1] is “C (A compound having a KD ratio of 0.1 or more and less than 3 is denoted as C)”. For the same compound, the Kd in experiment [2] (setting [4]) was determined as 19 pM. In experiment [3], the “HRAS/KRAS (ratio of KD value with respect to HRAS to KD value with respect to KRAS)” value was “C (A compound having a KD ratio of 0.1 or more and less than 3 is denoted as C)”.

Regarding `CC[C@H](C)[C@@H]1NC(=O)[C@H](CC)N(C)C(=O)C[C@@H](C(=O)N2CCOCC2)N(C)C(=O)[C@H](C2CCCC2)N(C)C(=O)C2(CCCC2)NC(=O)[C@@H]2CCCN2C(=O)[C@H](CCc2cc(F)c(C(F)(F)F)c(F)c2)NC(=O)CN(C)C(=O)[C@H](Cc2ccc(C(F)(F)F)cc2)N2CCCCC[C@@H](C2=O)N(C)C(=O)CN(C)C1=O` [PP0488], in experiment [1], the “NRAS/KRAS (ratio of KD value with respect to NRAS to KD value with respect to KRAS)” value is “A (a compound having 10 or more and less than 20 is denoted as A)”. In experiment [2] (setting [4]), the Kd was 2800 pM. Besides, the “HRAS/KRAS (ratio of KD value with respect to HRAS to KD value with respect to KRAS)” value in experiment [3] is “B (a compound having 3 or more and less than 10 is denoted as B)”.

For `CCO[C@@H]1C[C@H]2C(=O)NC3(CCC3)C(=O)N(C)[C@@H](C3CCCC3)C(=O)N(C)[C@H](C(=O)N(C)C)CC(=O)N(C)[C@@H](CCOC)C(=O)N[C@@H]([C@@H](C)CC)C(=O)N(C)CC(=O)N(C)[C@H]3CCCCN(C3=O)[C@@H](Cc3ccc(C(F)(F)F)cc3)C(=O)N(C)CC(=O)N[C@@H](CCc3cc(F)c(C(F)(F)F)c(F)c3)C(=O)N2C1` [PP0705], the “NRAS/KRAS (ratio of KD value with respect to NRAS to KD value with respect to KRAS)” value in experiment [1] is “C (A compound having a KD ratio of 0.1 or more and less than 3 is denoted as C)”. The Kd in experiment [2] (setting [4]) was found to be 27 pM. Further, the “HRAS/KRAS (ratio of KD value with respect to HRAS to KD value with respect to KRAS)” value in experiment [3] was “C (A compound having a KD ratio of 0.1 or more and less than 3 is denoted as C)”.

On to `CCCN1C(=O)CN(C)C(=O)CN(C)C(=O)[C@H]([C@@H](C)CC)NC(=O)[C@H](CC(C)C)N(C)C(=O)C[C@@H](C(=O)N2CCOCC2)NC(=O)[C@H](C2CCCC2)N(C)C(=O)C2(CCC2)NC(=O)[C@@H]2CC(F)(F)CN2C(=O)[C@H](CCc2ccc(C(F)(F)F)c(Cl)c2)NC(=O)CN(C)C(=O)[C@@H]1Cc1ccc(C(F)(F)F)cc1` [PP0322] ([NMeL]I[Sar][Sar][NPrPhe(4-CF3)][Sar][hPhe(3-Cl-4-CF3)][Pro(4,4-F2)][Ac4c][NMeGly(cPent)]D-Morpholide; lactam N-11), for which the “NRAS/KRAS (ratio of KD value for NRAS to KD value for KRAS)” value in experiment [1] is “B (a compound having 3 or more and less than 10 is denoted as B)”. Moreover, in experiment [2] (setting [4]), the Kd was 840 pM. The “HRAS/KRAS (ratio of KD value for HRAS to KD value for KRAS)” value in experiment [3] is “C (A compound having a KD ratio of 0.1 or more and less than 3 is denoted as C)”.

Regarding `CCO[C@@H]1C[C@H]2C(=O)NC3(CCC3)C(=O)N(C)[C@@H](C3CCCC3)C(=O)N(C)[C@H](C(=O)N(C)C)CC(=O)N(C)[C@@H](CC)C(=O)N[C@@H]([C@@H](C)CC)C(=O)N3C[C@H](OCC)C[C@H]3C(=O)N(C)[C@H]3C/C=C\CCN(C3=O)[C@@H](Cc3ccc(C(F)(F)F)cc3)C(=O)N(C)CC(=O)N[C@@H](CCc3cc(F)c(C(F)(F)F)c(F)c3)C(=O)N2C1` [PP1057], the “NRAS/KRAS (ratio of KD value for NRAS to KD value for KRAS)” value in experiment [1] is “A (a compound having 10 or more and less than 20 is denoted as A)”. Besides, the Kd in experiment [2] (SPR, Single Cycle Kinetics) amounted to 310 pM. In experiment [3], the “HRAS/KRAS (ratio of KD value for HRAS to KD value for KRAS)” value is “B (a compound having 3 or more and less than 10 is denoted as B)”.

Consider `CCCN1C(=O)CN(C)C(=O)CNC(=O)[C@H]([C@@H](C)CC)NC(=O)[C@H](CC(C)C)N(C)C(=O)C[C@@H](C(=O)N(C)C)NC(=O)[C@H](C2CCCC2)N(C)C(=O)C2(CCCC2)NC(=O)[C@@H]2CC(F)(F)CN2C(=O)[C@H](CCc2ccc(C(F)(F)F)c(Cl)c2)NC(=O)CN(C)C(=O)[C@@H]1Cc1ccc(C(F)(F)F)cc1` [PP0363] ([NMeL]IG[Sar][NPrPhe(4-CF3)][Sar][hPhe(3-Cl-4-CF3)][Pro(4,4-F2)][Ac5c][NMeGly(cPent)]D-NMe2; lactam N-11), for which the “NRAS/KRAS (ratio of KD value for NRAS to KD value for KRAS)” value in experiment [1] was “B (a compound having 3 or more and less than 10 is denoted as B)”. For the same compound, in experiment [2] (setting [4]), the dissociation constant (Kd) worked out at 1000 pM. In addition, the “HRAS/KRAS (ratio of KD value for HRAS to KD value for KRAS)” value in experiment [3] was “C (A compound having a KD ratio of 0.1 or more and less than 3 is denoted as C)”.

Consider `CC[C@H](C)[C@@H]1NC(=O)[C@H](CC(C)C)N(C)C(=O)C[C@@H](C(=O)N2CCOCC2)N(C)C(=O)[C@H](C2CCCC2)N(C)C(=O)C2(CCCC2)NC(=O)[C@@H]2CCCN2C(=O)[C@H](CCc2ccc(C(F)(F)F)c(Cl)c2)NC(=O)CN(C)C(=O)[C@H](Cc2ccc(OC(F)(F)F)cc2)N2CCCC[C@@H](C2=O)N(C)C(=O)CN(C)C1=O` [PP0536], for which, in experiment [1], the “NRAS/KRAS (ratio of KD value with respect to NRAS to KD value with respect to KRAS)” value was “B (a compound having 3 or more and less than 10 is denoted as B)”. Further, the dissociation constant (Kd) in experiment [2] (setting [4]) is 630 pM. Besides, the “HRAS/KRAS (ratio of KD value with respect to HRAS to KD value with respect to KRAS)” value in experiment [3] is “B (a compound having 3 or more and less than 10 is denoted as B)”.

In the case of `CC[C@H](C)[C@@H]1NC(=O)[C@@H]2CCCCCCc3ccc(cc3)C[C@@H](C(=O)N(C)CC(=O)N[C@@H](CCc3ccc(C(F)(F)F)c(OC)c3)C(=O)N3C[C@H](OC4CCC4)C[C@H]3C(=O)NC3(CC(C)(C)C3)C(=O)N(C)[C@@H](C3CCCC3)C(=O)N(C)[C@H](C(=O)N(C)C)CC(=O)N2C)N2CC/C=C\C[C@@H](C2=O)N(C)C(=O)CN(C)C1=O` [PP3068], in experiment [1], the “NRAS/KRAS (ratio of KD value for NRAS to KD value for KRAS)” value was “A (a compound having 10 or more and less than 20 is denoted as A)”. Besides, the Kd in experiment [2] (SPR, Single Cycle Kinetics) amounted to 50 pM. In addition, the “HRAS/KRAS (ratio of KD value for HRAS to KD value for KRAS)” value in experiment [3] was “B (a compound having 3 or more and less than 10 is denoted as B)”.

For the compound `CCC[C@H]1C(=O)N[C@@H]([C@@H](C)CC)C(=O)N(C)CC(=O)N(C)[C@H]2C/C=C\CCN(C2=O)[C@@H](Cc2ccc(C(F)(F)F)cc2)C(=O)N(C)CC(=O)N[C@@H](CCc2ccc(C(F)(F)F)c(OC)c2)C(=O)N2C[C@H](OCC)C[C@H]2C(=O)NC2(CC(C)(C)C2)C(=O)N(C)[C@@H](C(CC)CC)C(=O)N(C)[C@H](C(=O)N(C)C)CC(=O)N1C` [PP2160], the “NRAS/KRAS (ratio of KD value for NRAS to KD value for KRAS)” value in experiment [1] is “A (a compound having 10 or more and less than 20 is denoted as A)”. The Kd in experiment [2] (SPR, Single Cycle Kinetics) came to 220 pM. Besides, in experiment [3], the “HRAS/KRAS (ratio of KD value for HRAS to KD value for KRAS)” value is “A (a compound having 10 or more and less than 20 is denoted as A)”.

What is called Kd is the free concentration of one partner at which half of the binding sites on the other are occupied at equilibrium, for simple one-to-one binding.

These data come from patent US20240158446A1, “CYCLIC COMPOUND HAVING SELECTIVE INHIBITORY ACTION ON KRAS OVER HRAS AND NRAS” (CHUGAI SEIYAKU KABUSHIKI KAISHA, priority 2021, published 2024).
